In patent US8445501B2, “Substituted 7-carboxamido-pyrrolo[3,2-d]pyrimidines” (Takeda GmbH, priority 2008, dated 2013):

Molecular target: T1, human PDE5 (Homo sapiens, UniProt O76074)
T1 construct: from tissue; host or cells: platelets from fresh blood of human donors (lysate, 10,000 g supernatant)
Test: Inhibition of the type 5 phosphodiesterase (PDE5) activity, modified SPA test with platelet lysate
Format: biochemical
Conditions: PDE5 from human platelet lysate, 0.5 μM cGMP
How it was run: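 SPA-based cGMP hydrolysis, [3H]cGMP tracer in 0.5 μM cGMP, by sonicated human platelet lysate; motapizone (1 μM) and a PDE2 inhibitor (10 nM) block other PDEs. Reaction 15 min at 37 °C after 5 min preincubation, quenched with beads containing IBMX. IC50 from concentration-effect curves.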

Row | Compound | IC50 [nM] | -log IC50 (mol/l)
1 | CCOC(=O)N[C@H]1CC[C@H](NC(=O)c2c[nH]c3c(-c4ccccc4OCC4CC4)ncnc23)CC1 [Example 92, trans-(4-{[4-(2-Cyclopropylmethoxy-phenyl)-5H-pyrrolo[3,2-d]pyrimidine-7-carbonyl]-amino}-cyclohexyl)-carbamic acid ethyl ester] | 3.39 | 
2 | COc1ccc(-c2ncnc3c(C(=O)N[C@H]4CC[C@H](NC(C)=O)CC4)c[nH]c23)c(OCC2CC2)c1 [Example 51, trans-4-(2-Cyclopropylmethoxy-4-methoxy-phenyl)-5H-pyrrolo[3,2-d]pyrimidine-7-carboxylic acid (4-acetylamino-cyclohexyl)-amide] | 0.49 | 
3 | CCOC(=O)N1CC[C@H](NC(=O)c2c[nH]c3c(-c4c(OCC5CC5)ccc5c4OCO5)ncnc23)C1 [Example 22, (S)-3-({1-[4-(5-Cyclopropylmethoxy-benzo[1,3]dioxol-4-yl)-5H-pyrrolo[3,2-d]pyrimidin-7-yl]-methanoyl}-amino)-pyrrolidine-1-carboxylic acid ethyl ester] | 0.49 | 
4 | O=CN1CCCC(CNC(=O)c2c[nH]c3c(-c4c(OCC5CC5)ccc5c4OCO5)ncnc23)C1 (stereo not shown) [Example 28, 4-(5-Cyclopropylmethoxy-benzo[1,3]dioxol-4-yl)-5H-pyrrolo[3,2-d]pyrimidine-7-carboxylic acid (1-formyl-piperidin-3-ylmethyl)-amide] | 0.692 | 
5 | O=CN1CC[C@H](NC(=O)c2c[nH]c3c(-c4c(OCC5CC5)ccc5c4OCO5)ncnc23)C1 [Example 18, 4-(5-Cyclopropylmethoxy-benzo[1,3]dioxol-4-yl)-5H-pyrrolo[3,2-d]pyrimidine-7-carboxylic acid ((S)-1-formyl-pyrrolidin-3-yl)-amide] | 1.82 | 
6 | O=CN1CCOC(CNC(=O)c2c[nH]c3c(-c4c(OCC5CC5)ccc5c4OCO5)ncnc23)C1 (stereo not shown) [Example 35, 4-(5-Cyclopropylmethoxy-benzo[1,3]dioxol-4-yl)-5H-pyrrolo[3,2-d]pyrimidine-7-carboxylic acid (4-formyl-morpholin-2-ylmethyl)-amide] | 0.708 | 
7 | CC(=O)N1CCC(NC(=O)c2c[nH]c3c(-c4c(OCC5CCC5)ccc5c4OCO5)ncnc23)CC1 [Example 129, 4-(5-Cyclobutylmethoxy-benzo[1,3]dioxol-4-yl)-5H-pyrrolo[3,2-d]pyrimidine-7-carboxylic acid (1-acetyl-piperidin-4-yl)-amide] | 0.389 | 
8 | COCC(=O)N[C@H]1CC[C@H](NC(=O)c2c[nH]c3c(-c4c(OCC5CCC5)ccc5c4OCO5)ncnc23)CC1 [Example 128, trans-4-(5-Cyclobutylmethoxy-benzo[1,3]dioxol-4-yl)-5H-pyrrolo[3,2-d]pyrimidine-7-carboxylic acid [4-(2-methoxy-ethanoylamino)-cyclohexyl]-amide] | 0.209 | 
9 | CCOC(=O)N1CCC(NC(=O)c2c[nH]c3c(-c4cc(C)ccc4OCC4CC4)ncnc23)CC1 [Example 125, 4-{[4-(2-Cyclopropylmethoxy-5-methyl-phenyl)-5H-pyrrolo[3,2-d]pyrimidine-7-carbonyl]-amino}-piperidine-1-carboxylic acid ethyl ester] | 1.17 | 
10 | 4-({1-[4-(5-Cyclopropylmethoxy-benzo[1,3]dioxol-4-yl)-5H-pyrrolo[3,2-d]pyrimidin-7-yl]-methanoyl}-amino)-piperidine-1-carboxylic acid ethyl ester [Example 2] |  | 10.01
11 | O=C(NCC1CCN(C(=O)C2CC2)CC1)c1c[nH]c2c(-c3c(OCC4CC4)ccc4c3OCO4)ncnc12 [Example 25, 4-(5-Cyclopropylmethoxy-benzo[1,3]dioxol-4-yl)-5H-pyrrolo[3,2-d]pyrimidine-7-carboxylic acid [1-(1-cyclopropyl-methanoyl)-piperidin-4-ylmethyl]-amide] | 0.24 | 
12 | COCCOc1ccc2c(c1-c1ncnc3c(C(=O)NC4CCN(C(C)=O)CC4)c[nH]c13)OCO2 [Example 168, 4-[5-(2-Methoxy-ethoxy)-benzo[1,3]dioxol-4-yl]-5H-pyrrolo[3,2-d]pyrimidine-7-carboxylic acid (1-acetyl-piperidin-4-yl)-amide] | 7.94 | 
13 | C[C@H](O)C(=O)N1CC[C@H](NC(=O)c2c[nH]c3c(-c4c(OCC5CC5)ccc5c4OCO5)ncnc23)C1 [Example 184, 4-(5-Cyclopropylmethoxy-benzo[1,3]dioxol-4-yl)-5H-pyrrolo[3,2-d]pyrimidine-7-carboxylic acid [(S)-1-((S)-2-hydroxy-propanoyl)-pyrrolidin-3-yl]amide] | 3.16 | 
14 | COCCOc1ccc2c(c1-c1ncnc3c(C(=O)N[C@H]4CC[C@@H](NC(=O)C5CC5)CC4)c[nH]c13)OCO2 [Example 165, cis-4-[5-(2-Methoxy-ethoxy)-benzo[1,3]dioxol-4-yl]-5H-pyrrolo[3,2-d]pyrimidine-7-carboxylic acid [4-(cyclopropanecarbonyl-amino)-cyclohexyl]-amide] | 5.89 | 
15 | CCC(=O)N1CCOC(CNC(=O)c2c[nH]c3c(-c4c(OCC5CC5)ccc5c4OCO5)ncnc23)C1 (stereo not shown) [Example 36, 4-(5-Cyclopropylmethoxy-benzo[1,3]dioxol-4-yl)-5H-pyrrolo[3,2-d]pyrimidine-7-carboxylic acid (4-propionyl-morpholin-2-ylmethyl)-amide] | 0.49 | 
16 | COCC(=O)N[C@H]1CC[C@H](NC(=O)c2c[nH]c3c(-c4ccccc4OCC4CC4)ncnc23)CC1 [Example 91, trans-4-(2-Cyclopropylmethoxy-phenyl)-5H-pyrrolo[3,2-d]pyrimidine-7-carboxylic acid [4-(2-methoxy-acetylamino)-cyclohexyl]-amide] | 6.31 | 
17 | CC(=O)N1CCC(NC(=O)c2c[nH]c3c(-c4ccc(F)cc4OCC4CC4)ncnc23)CC1 [Example 81, 4-(2-Cyclopropylmethoxy-4-fluoro-phenyl)-5H-pyrrolo[3,2-d]pyrimidine-7-carboxylic acid (1-acetyl-piperidin-4-yl)-amide] | 1.48 | 
18 | COCCOc1cc(OC)ccc1-c1ncnc2c(C(=O)NC3CCN(C(C)=O)CC3)c[nH]c12 [Example 158, 4-[4-Methoxy-2-(2-methoxy-ethoxy)-phenyl]-5H-pyrrolo[3,2-d]pyrimidine-7-carboxylic acid (1-acetyl-piperidin-4-yl)-amide] | 24 | 
19 | O=C(NC1CCN(C(=O)C2CC2)CC1)c1c[nH]c2c(-c3c(OCC4CC4)ccc4c3OCO4)ncnc12 [Example 12, 4-(5-Cyclopropylmethoxy-benzo[1,3]dioxol-4-yl)-5H-pyrrolo[3,2-d]pyrimidine-7-carboxylic acid [1-(1-cyclopropyl-methanoyl)-piperidin-4-yl]amide] | 0.0692 | 
20 | CCCCOc1ccc2c(c1-c1ncnc3c(C(=O)N[C@@H]4CCN(C(=O)OCC)C4)c[nH]c13)OCO2 [Example 151, (R)-3-{[4-(5-Butoxy-benzo[1,3]dioxol-4-yl)-5H-pyrrolo[3,2-d]pyrimidine-7-carbonyl]amino}-pyrrolidine-1-carboxylic acid ethyl ester] | 0.295 | 

More lines, main results first:

Row | IC50 [nM] | Compound | -log IC50 (mol/l)
21 | 1.51 | O=C(N[C@H]1CC[C@@H](NC(=O)C2(O)CC2)CC1)c1c[nH]c2c(-c3ccc(F)cc3OCC3CC3)ncnc12 [Example 216, cis-4-(2-Cyclopropylmethoxy-4-fluoro-phenyl)-5H-pyrrolo[3,2-d]pyrimidine-7-carboxylic acid {4-[(1-hydroxy-cyclopropanecarbonyl)-amino]-cyclohexyl}-amide] | 
22 | 0.832 | C[C@H](O)C(=O)N1CCC(CNC(=O)c2c[nH]c3c(-c4c(OCC5CC5)ccc5c4OCO5)ncnc23)C1 (stereo partly drawn) [Example 192, 4-(5-Cyclopropylmethoxy-benzo[1,3]dioxol-4-yl)-5H-pyrrolo[3,2-d]pyrimidine-7-carboxylic acid [1-((S)-2-hydroxy-propionyl)pyrrolidin-3-ylmethyl]-amide] | 
23 | 0.661 | COc1ccc(-c2ncnc3c(C(=O)NC4CCN(C(=O)[C@H](C)O)CC4)c[nH]c23)c(OCC2CC2)c1 [Example 206, 4-(2-Cyclopropylmethoxy-4-methoxy-phenyl)-5H-pyrrolo[3,2-d]pyrimidine-7-carboxylic acid [1-((S)-2-hydroxy-propanoyl)piperidin-4-yl]-amide] | 
24 | 10 | COCCOc1ccc2c(c1-c1ncnc3c(C(=O)NC4CCN(C(=O)[C@H](C)O)CC4)c[nH]c13)OCO2 [Example 263, 4-[5-(2-Methoxy-ethoxy)-benzo[1,3]dioxol-4-yl]-5H-pyrrolo[3,2-d]pyrimidine-7-carboxylic acid [1-((S)-2-hydroxy-propionyl)piperidin-4-yl]-amide] | 
25 | 1.35 | COc1cc(OCC2CC2)c(-c2ncnc3c(C(=O)N[C@@H]4CCN(C(=O)CO)C4)c[nH]c23)cc1F [Example 241, 4-(2-Cyclopropylmethoxy-5-fluoro-4-methoxy-phenyl)-5H-pyrrolo[3,2-d]pyrimidine-7-carboxylic acid [(R)-1-(2-hydroxy-acetyl)pyrrolidin-3-yl]-amide] | 
26 | 1.86 | COc1ccc(OCC2CC2)c(-c2ncnc3c(C(=O)N[C@H]4CC[C@@H](NC(=O)CO)CC4)c[nH]c23)c1 [Example 208, cis-4-(2-Cyclopropylmethoxy-5-methoxy-phenyl)-5H-pyrrolo[3,2-d]pyrimidine-7-carboxylic acid [4-(2-hydroxy-acetylamino)-cyclohexyl]-amide] | 
27 | 0.363 | CCCOc1ccc2c(c1-c1ncnc3c(C(=O)NC4CCN(C(=O)[C@H](C)O)CC4)c[nH]c13)OCO2 [Example 251, 4-(5-Propoxy-benzo[1,3]dioxol-4-yl)-5H-pyrrolo[3,2-d]pyrimidine-7-carboxylic acid [1-((S)-2-hydroxy-propionyl)piperidin-4-yl]-amide] | 
28 | 0.162 | COc1cc(-c2ncnc3c(C(=O)NC4CCN(C(=O)[C@H](C)O)CC4)c[nH]c23)c(OCC2CC2)cc1F [Example 228, 4-(2-Cyclopropylmethoxy-4-fluoro-5-methoxy-phenyl)-5H-pyrrolo[3,2-d]pyrimidine-7-carboxylic acid [1-((S)-2-hydroxy-propionyl)-piperidin-4-yl]-amide] | 
